Reference: PMC12583827, “Harnessing microbial-derived metabolites in the urinary tract to prevent infection induced catheter encrustation” (Nature Communications, 2025)
Counter-ions that a name gives are not always drawn.

How the values were obtained:
[1] = system: P. mirabilis; test: In vitro glass “bladder” model of catheter encrustation; assay type: cell-based, Proteus mirabilis
Description: A Foley catheter is inserted aseptically into the vessel through an opening at the base, the balloon is inflated, and the catheter is attached to a catheter drainage bag (Fig. 7A). The “bladder” is supplied with sterile AUM at a physiologically relevant flow rate via peristaltic pump from a media reservoir, the “kidney” (Fig. 7A). An initial bacterial inoculum of 10^8 CFU of P. mirabilis was added to the AUM in the “bladder” inner chamber to model robust bacteriuria, followed by initiation of flow (Fig. 7B). The performance of urease-dampening metabolites was evaluated as a reduction in 1) effluent AUM pH over the 24 h study period, and 2) crystalline biofilm formation and ion precipitation on catheter segments 24 h post inoculation. Urease-dampening metabolites and AHA were introduced into the system by direct dissolution into the AUM reservoirs. For each study, both positive (untreated P. mirabilis) and negative (untreated P. mirabilis urease negative mutant) controls were included. Effluent urine samples were collected at 0, 3, 6, 9, 12 and 24 h post inoculation. This preclinical model of catheter encrustation was modified to assess whether prophylactic administration of urease-dampening metabolites increases efficacy of antimicrobials against catheter biofilms, as outlined in Fig. 9A. Each experiment was performed in triplicate. Full details of experimental set up, sample collection, and processing are provided below and in Supplementary Materials.
A previously described glass “bladder” model was used, in which a 500 mL water-jacketed glass vessel is maintained at 37 °C via a circulating water bath, a Foley catheter is inserted and inflated, and artificial urine medium (AUM) is supplied into the “bladder” at a constant flow rate (0.75-1.0 mL/min) through a peristaltic pump[55],[56]. For consistency with the in vitro urease activity assays and the physiologic range of urea in healthy human urine, AUM was supplemented with 500 mM urea[57]. Urease-dampening metabolites of interest were directly dissolved in AUM 500 mM urea, adjusted to a pH of 5.8, and filter sterilized via a 0.2μm filter. “Bladders” were inoculated with 10^8 CFUs of P. mirabilis. Samples were collected from the catheter port at 0, 3, 6, 9, 12, and 24 hours to monitor pH and bacterial CFUs. Catheters segments were processed for CFUs, crystal violet staining of biofilm biomass, and ion composition at 24 h. Full details are provided in the Supplementary Methods.
236 and the segments were air dried for 15 min. Catheter segments were stained with 1.0 ml 0.1%
237 crystal violet for 10 min, washed by gentle dunking in 1X phosphate-buffered saline (PBS) to
238 remove excess stain, and solubilized in a microcentrifuge tube containing 750μL of 1% SDS
239 95% ethanol and vortexed for 5 minutes. Crystal violet absorbance (OD570) was measured in a
240 BioTek Synergy H1 microplate reader and blanked using cell-free control wells for each biofilm
243 Catheter segment biofilm viability. Catheter segments were washed by gentle dunking in 1X
244 phosphate-buffered saline (PBS) to remove any remaining planktonic bacteria and residual AUM
245 from the catheter lumen. Catheter segments were then placed in a microcentrifuge tube
246 containing 1mL of 1X PBS and vortexed for 5 minutes to solubilize the biofilm. Samples
247 underwent serial 10-fold dilutions and were spiral plated (Eddy Jet 2; Neutec Group Inc.,
248 Farmingdale, NY) onto low-salt LB agar for enumeration of CFU using a ProtoCOL 3 automated
249 colony counter (Synbiosis).
251 Catheter segment elemental composition. Catheter segments were placed in a microcentrifuge

[2] = system: lymphoblasts (K562); conditions: cited from earlier work
[3] = system: human gastric cancer cells (SGC-7901); conditions: cited from earlier work
[4] = system: epithelial-like hepatocellular carcinoma cells (HepG2); conditions: cited from earlier work
[5] = cited from earlier work
[6] = system: urease operon (ureR); set-up: method as in PMID 31921010; conditions: cited from earlier work
[7] = system: Helicobacter pylori urease; set-up: method as in earlier work; conditions: cited from earlier work
[8] = system: P. mirabilis urease; set-up: method as in PMID 8494373; conditions: limited concentrations tested; cited from earlier work
[9] = system: P. mirabilis catheter biofilms; test: Antibiotic testing in the in vitro “bladder” model; assay type: cell-based, Proteus mirabilis; conditions: 1ug/mL ceftriaxone added at 24 h
Description: The glass “bladder” system assembly, inoculation and sample collection were performed as described above. At 24 h post inoculation glass “bladders” were supplied with media containing the same metabolite (or AUM only control) with or without 1 µg/mL ceftriaxone sodium salt hydrate (Cayman Chemical Company, Michigan, USA). Samples were then collected from the catheter port at 27, 30, 33, 36 and 48 h to monitor pH and bacterial CFUs. After 48 h, the catheters were carefully removed, sectioned and assessed for bacterial viability as detailed in Supplementary Methods.

[10] = 24 h, alone: 5 mM AHA, 25 mM histamine, 25 mM 4-imidazole acetate

CC(=O)NO [AHA, acetohydroxamic acid, reference compound]
crystalline biofilm formation ([1]; 24 h, alone: 1.25 mM AHA, 12.5 mM histamine, 12.5 mM 4-imidazole acetate): no impact on crystalline biofilm formation
Magnesium and phosphorus precipitation on catheter segments (ICP-OES) [1, 10]: reduced, although the reduction was not statistically significant
catheter biofilm biomass (crystal violet) vs untreated P. mirabilis [1, 10]: significantly reduced biofilm biomass
pH of AUM collected from “bladders” over 24 h ([1]; alone, lower concentrations): failed to restrict pH
pH of AUM collected from “bladders” over 24 h ([1]; alone: 5 mM AHA, 25 mM histamine, 25 mM 4-imidazole acetate, nucleation point ~ pH 8): never surpassed the nucleation point
P. mirabilis CFUs in effluent over time ([1]; tested individually): no meaningful differences between CFUs over time
urease-mediated pH increase ([1]; tested individually, dose response): perturbed urease-mediated pH increase in a dose-dependent manner
decrease in viability of K562 [2]: 60-70%
decrease in viability of SGC-7901 [3]: 60-70%
decrease in viability of HepG2 [4]: 60-70%
efficacy in clinical trials [5]: showed efficacy in preventing urinary stone formation
severe side effects ([5]; in vivo): teratogenesis, hemolytic anemia, psychoneurological and muscular symptoms

2-Hydroxy-4-methoxybenzaldehyde
urease operon expression [6]: reduce urease operon expression

Cc1c(OCC(F)(F)F)ccnc1C[S+]([O-])c1nc2ccccc2[nH]1 (stereo not shown) [lansoprazole]
Helicobacter pylori urease activity [7]: inhibit
P. mirabilis urease activity [8]: did not inhibit

CO/N=C(\C(=O)N[C@@H]1C(=O)N2C(C(=O)O)=C(CSc3nc(=O)c(=O)[nH]n3C)CS[C@H]12)c1csc(N)n1 [ceftriaxone, ceftriaxone sodium salt hydrate]
AUM pH compared to the control “bladder” [9]: no impact on pH
reduction in CFU/mL by the end of the experiment ([9]; effluent, 48 h): 3 log

COc1ccc2[nH]c([S+]([O-])Cc3ncc(C)c(OC)c3C)nc2c1 (stereo not shown) [Omeprazole]
Helicobacter pylori urease activity [7]: inhibit
P. mirabilis urease activity [8]: did not inhibit
